Results reported in US6759207B2, “Fluorogenic or fluorescent reporter molecules and their applications for whole-cell fluorescence screening assays for caspases and other enzymes and the use thereof” (Cytovia, Inc., priority 1997, dated 2004).

Columns and labels:
Type in all cases: biochemical
[1] = test system: apoptotic HL-60 cell lysates; assay: Cleavage of caspase-3 substrates by apoptotic HL-60 cell lysates; details: 10 μM or 50 μM substrate, 37° C., vinblastine treated HL-60 cell lysates
Method: (§1) The caspase substrates were assayed by recombinant caspase-3 and by lysates prepared from apoptotic HL-60 cells. The assays were carried out at 37° C. in 96-well plates in a 100 μL incubation containing 30 μL of caspase-3 preparation or cell lysate, 10 μM or 50 μM of the substrate, and caspase assay buffer (40 mM 1,4-piperazinebis(ethansulfonic acid) (PIPES, Aldrich Chemical Company) pH 7.2; 100 mM NaCl; 10% sucrose; 0.1% CHAPS; 1 mM EDTA; 10 mM DTT). At the end of the incubation period, the fluorescence was measured on a Bio-Tek FL500 fluorescence microplate reader using excitation and emission wavelengths of 485 and 530 nm, respectively. Two different controls were run: 1) an enzyme blank consisting of samples containing substrate, but without enzyme or cell lysate; 2) an inhibitor control, consisting of samples which contained the caspase inhibitor, Ac-DEVD-CHO (f.c., 10 μM).

[2] = biological target: T1, recombinant human caspase-3 (Homo sapiens, UniProt P42574); assay: Cleavage of caspase-3 substrates by recombinant human caspase-3; details: for Cleavage by Caspase-3: 10 μM or 50 μM substrate, 37° C.
T1 sequence (P42574 29-175 limits assumed): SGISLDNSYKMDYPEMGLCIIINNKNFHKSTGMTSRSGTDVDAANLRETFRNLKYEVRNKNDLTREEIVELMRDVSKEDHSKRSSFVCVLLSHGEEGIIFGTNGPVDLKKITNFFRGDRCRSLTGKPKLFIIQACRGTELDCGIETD
T1 sequence (P42574 176-277 limits assumed): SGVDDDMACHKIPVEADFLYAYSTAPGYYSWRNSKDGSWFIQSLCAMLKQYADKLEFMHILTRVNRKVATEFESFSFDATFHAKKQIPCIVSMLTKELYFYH
Method: as §1

[3] = biological target: T2, recombinant ICE (Homo sapiens, UniProt P29466); assay: Fluorometric enzyme assay, cleavage of substrate by recombinant ICE; details: for ICE Vmax / Km: 1-100 μM substrate, 37° C.; for Km: NA = no activity observed at 1-100 μM substrate, 3 h incubation; for efficiency as substrate for ICE: summary of Table 4
T2 construct: made in house; host or cells: Sf9 insect cells, baculovirus vector
T2 sequence (P29466 120-297 limits assumed): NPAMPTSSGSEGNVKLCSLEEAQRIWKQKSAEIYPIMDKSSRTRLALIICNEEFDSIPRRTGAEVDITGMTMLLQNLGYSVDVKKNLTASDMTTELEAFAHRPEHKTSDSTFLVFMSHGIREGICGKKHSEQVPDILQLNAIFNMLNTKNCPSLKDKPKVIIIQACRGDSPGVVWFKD
T2 sequence (P29466 317-404 limits assumed): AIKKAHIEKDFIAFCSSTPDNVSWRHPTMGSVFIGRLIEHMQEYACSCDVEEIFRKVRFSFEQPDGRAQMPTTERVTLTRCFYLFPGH
Method: (§2) The activities of N-(Z-VD)-N′-acetyl-Rhodamine 110, N-(Z-VAD)-N′-acetyl-Rhodamine 110, N-(Z-DEVD)-N′-acetyl-Rhodamine 110 SEQ ID NO:5, N-(Z-YVAD)-N-acetyl-Rhodamine 110 SEQ ID NO:2, (Z-VAD)2-Rhodamine 110 and (Z-YVAD)2-Rhodamine 110 SEQ ID NO:2 as synthetic substrates for recombinant CPP32 and ICE were measured in a fluorometric enzyme assay. […] See, Webb, N. R. et al., “Expression of proteins using recombinant Baculovirus,” Techniques 2:173-188 (1990). Cleavage of the synthetic substrates by the enzyme results in a fluorescent signal which is read in a spectrofluorometer or in a fluorometric microtiter plate reader. Using this assay, the Km and Vmax values were determined for each substrate with either CPP32 or ICE.
(§3) CPP32 and ICE dependent substrate cleavage was measured using the following buffer conditions: 100 mM HEPES pH 7.5, with 10% sucrose, 1% CHAPS, 5 mM glutathione, and 1-100 μM test substrate. Nonspecific enzyme cleavage was determined with the use of the specific CPP32 and ICE inhibitors consisted of an oligomer with the sequence Asp-Glu-Val-Asp or Tyr-Val-Ala-Asp, respectively, with an aldehyde group conjugated to the C-terminus. The assay for enzyme activity was typically carried out at 37° C. for 60 minutes.

[4] = biological target: T3, recombinant CPP32 (Homo sapiens, UniProt P42574); assay: Fluorometric enzyme assay, cleavage of substrate by recombinant CPP32; details: summary of Table 4
T3 construct: made in house; host or cells: Sf9 insect cells, baculovirus vector
T3 sequence (P42574 29-175 limits assumed): T1 sequence (P42574 29-175 limits assumed)
T3 sequence (P42574 176-277 limits assumed): T1 sequence (P42574 176-277 limits assumed)
Method: as §2, §3

[5] = listed as N-Z-EVD-N′-Ethoxycarbonyl-R110

Row | Cleavage by Caspase-3 [2] | Compound | Cleavage by Apoptotic Lysates [1] | further results
1 | Fair | CCOC(=O)Nc1ccc2c(c1)Oc1cc(NC(=O)C(CC(=O)O)NC(=O)C(NC(=O)C(CCC(=O)O)NC(=O)OCc3ccccc3)C(C)C)ccc1C21OC(=O)c2ccccc21 (centres unmarked) [N-Z-EVD-N′-ethoxycarbonyl-R110] | Fair | Cleavage by Apoptotic Lysates [1, 5]: cleaved efficiently; Cleavage by Caspase-3 [2, 5]: cleaved efficiently
2 | the signal was low and Poor | CCOC(=O)Nc1ccc2c(c1)Oc1cc(NC(=O)[C@H](CC(=O)O)NC(=O)[C@@H](NC(=O)OCc3ccccc3)C(C)C)ccc1C21OC(=O)c2ccccc21 (stereo partly drawn) [N-Z-VD-N′-ethoxycarbonyl-R110, N-(Cbz-Val-Asp)-N′-Ethoxycarbonyl-Rhodamine 110] | Poor | amount of recombinant caspase-3 required for cleavage relative to tri- and tetrapeptide substrates ([2]; FIG. 2A): 50 fold
3 | Good | CCOC(=O)Nc1ccc2c(c1)Oc1cc(NC(=O)[C@H](CC(=O)O)NC(=O)[C@@H](NC(=O)[C@H](CCC(=O)O)NC(=O)[C@H](CC(=O)O)NC(C)=O)C(C)C)ccc1C21OC(=O)c2ccccc21 (stereo partly drawn) [N-Ac-DEVD-N′-ethoxycarbonyl-R110, N-(Ac-Asp-Glu-Val-Asp)-N′-ethoxycarbonyl-Rhodamine 110] | Good | –
4 | – | CC(C)[C@H](NC(=O)OCc1ccccc1)C(=O)N[C@@H](C)C(=O)N[C@@H](CC(=O)O)C(=O)Nc1ccc2c(c1)Oc1cc(NC(=O)[C@H](CC(=O)O)NC(=O)[C@H](C)NC(=O)[C@@H](NC(=O)OCc3ccccc3)C(C)C)ccc1C21OC(=O)c2ccccc21 [(Z-VAD)2-Rhodamine 110, (Z-Val-Ala-Asp)2-Rhodamine 110] | – | ICE Vmax [3]: 9 nmol/min; Km [3]: 21 µM; efficiency as substrate for ICE [3]: efficient substrates; efficiency as substrate for CPP32 [4]: not for CPP32
5 | Good | CCCCCCOC(=O)Nc1ccc2c(c1)Oc1cc(NC(=O)[C@H](CC(=O)O)NC(=O)[C@@H](NC(=O)[C@H](CCC(=O)O)NC(=O)[C@H](CC(=O)O)NC(C)=O)C(C)C)ccc1C21OC(=O)c2ccccc21 (stereo partly drawn) [N-Ac-DEVD-N′-hexyloxycarbonyl-R110, N-(Ac-Asp-Glu-Val-Asp)-N′-hexyloxycarbonyl-Rhodamine-110] | Good | –
6 | Good | CCOC(=O)Nc1ccc2c(c1)Oc1cc(NC(=O)[C@H](CC(=O)O)NC(=O)[C@@H](NC(=O)[C@H](CCC(=O)O)NC(=O)[C@H](CC(=O)O)NC(=O)OCc3ccccc3)C(C)C)ccc1C21OC(=O)c2ccccc21 (stereo partly drawn) [N-Z-DEVD-N′-ethoxycarbonyl-R110, N-(Cbz-Asp-Glu-Val-Asp)-N′-ethoxycarbonyl-Rhodamine 110] | Good | –
7 | Good | CCSC(=O)Nc1ccc2c(c1)Oc1cc(NC(=O)[C@H](CC(=O)O)NC(=O)[C@@H](NC(=O)[C@H](CCC(=O)O)NC(=O)[C@H](CC(=O)O)NC(C)=O)C(C)C)ccc1C21OC(=O)c2ccccc21 (stereo partly drawn) [N-Ac-DEVD-N′-(ethylthio)carbonyl-R110, N-(Ac-Asp-Glu-Val-Asp)-N′-(ethylthio)carbonyl-Rhodamine 110] | Good | –
8 | – | CC(=O)Nc1ccc2c(c1)Oc1cc(NC(=O)C(CC(=O)O)NC(=O)C(C)NC(=O)C(NC(=O)OCc3ccccc3)C(C)C)ccc1C21OC(=O)c2ccccc21 (stereo not drawn) [N-(Z-VAD)-N′-Ac-Rhodamine 110, N-(Z-Val-Ala-Asp)-N′-acetyl-Rhodamine 110] | – | ICE Vmax [3]: 4 nmol/min; Km [3]: 70 µM; efficiency as substrate for ICE [3]: efficient substrates; efficiency as substrate for CPP32 [4]: not for CPP32
